How the values were obtained:
human GLP-1 receptor [1] = target: T1, human GLP-1 receptor (Homo sapiens, UniProt P43220); assay: In vitro potency: CRE luciferase reporter gene assay in BHK cells expressing the human GLP-1 receptor; assay type: cell-based
T1 construct: expressed in transfected cells; host or cells: BHK cells (parent line BHKTS13), clone FCW467-12A; membrane preparation
Experimental: The purpose of this example is to test the activity, or potency, of the GLP-1 derivatives in vitro. The in vitro potency is the measure of human GLP-1 receptor activation in a whole cell assay.
In vitro potency was determined by measuring the response of the human GLP-1 receptor in a reporter gene assay. The assay was performed in a stably transfected BHK cell line that expresses the human GLP-1 receptor and contains the DNA for the cAMP response element (CRE) coupled to a promoter and the gene for firefly luciferase (CRE luciferase). When the human GLP-1 receptor is activated it results in the production of cAMP, which in turn results in the luciferase protein being expressed. When assay incubation is completed the luciferase substrate (luciferin) is added and the enzyme converts luciferin to oxyluciferin to produce bioluminescence. The luminescence is measured as the readout for the assay.
The cells were cultured at 5% CO2 in cell culture medium. They were aliquoted and stored in liquid nitrogen. Before each assay an aliquot was taken up and washed twice in PBS before being suspended at the desired concentration in the assay specific buffer.
The assay buffer consisted of 2% ovalbumin and 0.2% Pluronic F-68 in assay medium.
1) Cell stocks were thawed in a 37° C. water bath.
2) Cells were washed three times in PBS.
3) Cells were counted and adjusted to 5×10^3 cells/50 μl (1×10^5 cells/ml) in assay medium. A 50 μl aliquot of cells was transferred to each well in the assay plate.
4) Stocks of the test compounds and reference compounds were diluted to a concentration of 0.2 μM in assay buffer. […] 8) A 100 μl aliquot of steadylite plus reagent was added to each well of the assay plate. 9) Each assay plate was covered with aluminum foil to protect it from light and shaken for 30 min at room temperature. 10) Each assay plate was read in a BioTek Synergy 2 Multi-Mode Reader. Calculations and Results
The data from the BioTek Synergy 2 Multi-Mode Reader were transferred to GraphPad Prism software. The software performs a non-linear regression (log(agonist) vs response (three parameters)).
A minimum of two replicates were measured for each sample. The reported EC50 values are averages of all of the measured values for each compound.

human GLP-1 receptor [2] = target: T1, human GLP-1 receptor; assay: GLP-1 receptor binding: competitive binding assay (125I-GLP-1, SPA) on isolated membranes at low and high HSA
Experimental: The purpose of this example is to test the receptor binding of the GLP-1 derivatives in vitro. The receptor binding is a measure of affinity of a derivative for the human GLP-1 receptor.
Each derivative is added in a series of concentrations to isolated membranes containing the human GLP-1 receptor and displacement of the labelled ligand is monitored. The receptor binding is reported as the concentration at which half of the labelled ligand is displaced from the receptor, the IC50 value.
Buffer 1 consisted of 20 mM Na-HEPES plus 10 mM EDTA and pH was adjusted to 7.4. Buffer 2 consisted of 20 mM Na-HEPES plus 0.1 mM EDTA and pH was adjusted to 7.4. Assay buffer consisted of 50 mM HEPES supplemented with 5 mM EGTA, 5 mM MgCl2, 0.005% Tween 20 and pH was adjusted to 7.4. An 8% albumin stock consisted of HSA dissolved at 8% (w/v) in assay buffer. An 0.02% albumin stock consisted of HSA dissolved at 0.02% (w/v) in assay buffer.
The cells express the human GLP-1 receptor.
The cells were grown at 5% CO2 in DMEM, 10% fetal calf serum, 1% Pen/Strep (Penicillin/Streptomycin) and 1.0 mg/ml of the selection marker G418. To make a membrane preparation the cells were grown to approximately 80% confluence. The cells were washed twice in phosphate-buffered saline and harvested. The cells were pelleted using a brief centrifugation and the cell pellet was kept on ice. […] The homogenate was centrifuged for 15 minutes. The pellet was re-suspended (homogenised) in 10 ml buffer 2 and centrifuged. This step was repeated once more. The resulting pellet was re-suspended in buffer 2 and the protein concentration was determined. The membranes were aliquoted and stored at minus 80° C.
1. […] Assay continued with step 3.
2. For the receptor binding assay in the presence of high HSA (2%) 50 μl of the 8% albumin stock was added to each well of an assay plate. Assay continued with step 3.
4. Cell membrane aliquots were thawed and diluted to their working concentration. Fifty μl were added to each well in the assay plate.
5. WGA SPA beads were suspended in assay buffer at 20 mg/ml. The suspension was diluted to 10 mg/ml in assay buffer just prior to addition to the assay plate. Fifty μl were added to each well in the assay plate.
6. […] A 25 μl aliquot was reserved for measuring total counts/well.
7. The assay plate was incubated for 2 h at 30° C.
8. The assay plate was centrifuged for 10 min.
9. The assay plate was read in a Packard TopCount NXT instrument.
The data from the TopCount instrument were transferred to GraphPad Prism software. Individual replicates were analysed using non-linear regression. IC50 values were calculated by the software and reported in nM. The reported values are averages of all of the measured values for each compound.

[3] = High HSA IC50, high HSA (2.0% final assay concentration)
[4] = Low HSA IC50, low HSA (max. 0.001% final assay concentration)

T1 sequence (P43220 24-463): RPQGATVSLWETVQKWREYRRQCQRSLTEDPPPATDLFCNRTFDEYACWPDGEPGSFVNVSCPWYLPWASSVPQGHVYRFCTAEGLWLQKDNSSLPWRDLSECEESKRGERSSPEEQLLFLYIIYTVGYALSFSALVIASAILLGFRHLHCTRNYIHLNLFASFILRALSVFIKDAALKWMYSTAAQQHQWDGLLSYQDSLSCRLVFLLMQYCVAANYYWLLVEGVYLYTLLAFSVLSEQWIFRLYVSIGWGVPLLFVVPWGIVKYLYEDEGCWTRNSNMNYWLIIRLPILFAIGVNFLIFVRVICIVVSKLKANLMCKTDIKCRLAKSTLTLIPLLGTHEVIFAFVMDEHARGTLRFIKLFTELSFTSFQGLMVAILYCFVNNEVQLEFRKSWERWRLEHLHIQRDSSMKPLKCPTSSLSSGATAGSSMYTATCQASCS

SMILES	EC50 (human GLP-1 receptor [1]) [nM]	IC50 (human GLP-1 receptor [2]; [3]) [nM]	IC50 (human GLP-1 receptor [2]; [4]) [nM]
CC[C@H](C)[C@H](NC(=O)[C@H](Cc1ccccc1)NC(=O)[C@H](CCC(=O)O)NC(=O)[C@H](CCCNC(=N)N)NC(=O)[C@H](C)NC(=O)[C@H](C)NC(=O)[C@H](CCC(N)=O)NC(=O)[C@H](CCC(=O)O)NC(=O)[C@H](CCC(=O)O)NC(=O)[C@H](CC(C)C)NC(=O)[C@H](Cc1ccc(O)cc1)NC(=O)[C@H](CO)NC(=O)[C@H](CO)NC(=O)[C@@H](NC(=O)[C@H](CC(=O)O)NC(=O)[C@H](CO)NC(=O)[C@@H](NC(=O)[C@H](Cc1ccccc1)NC(=O)[C@@H](NC(=O)CNC(=O)[C@H](CCC(=O)O)NC(=O)C(C)(C)NC(=O)[C@@H](N)Cc1c[nH]cn1)[C@@H](C)O)[C@@H](C)O)C(C)C)C(=O)N[C@@H](C)C(=O)N[C@@H](Cc1c[nH]c2ccccc12)C(=O)N[C@@H](CC(C)C)C(=O)N[C@H](C(=O)N[C@@H](CCCNC(=N)N)C(=O)NCC(=O)N[C@@H](CCCNC(=N)N)C(=O)N[C@@H](CCCCNC(=O)CN(CCCNC(=O)COCCOCCNC(=O)COCCOCCNC(=O)COCCOCCNC(=O)COCCOCCNC(=O)COCCOCCNC(=O)COCCOCCNC(=O)[C@@H](N)CCCCNC(=O)[C@@H](N)CCCCNC(=O)CCCNC(=O)CCCCCCCCCCCCCCCS(=O)(=O)O)CCCNC(=O)COCCOCCNC(=O)COCCOCCNC(=O)COCCOCCNC(=O)COCCOCCNC(=O)COCCOCCNC(=O)COCCOCCNC(=O)[C@@H](N)CCCCNC(=O)[C@@H](N)CCCCNC(=O)CCCNC(=O)CCCCCCCCCCCCCCCS(=O)(=O)O)C(=O)O)C(C)C [Example 15]	0.0056	3.4	0.05
CC[C@H](C)[C@H](NC(=O)[C@H](Cc1ccccc1)NC(=O)[C@H](CCC(=O)O)NC(=O)[C@H](CCCNC(=N)N)NC(=O)[C@H](C)NC(=O)[C@H](C)NC(=O)[C@H](CCC(N)=O)NC(=O)[C@H](CCC(=O)O)NC(=O)[C@H](CCC(=O)O)NC(=O)[C@H](CC(C)C)NC(=O)[C@H](Cc1ccc(O)cc1)NC(=O)[C@H](CO)NC(=O)[C@H](CO)NC(=O)[C@@H](NC(=O)[C@H](CC(=O)O)NC(=O)[C@H](CO)NC(=O)[C@@H](NC(=O)[C@H](Cc1ccccc1)NC(=O)[C@@H](NC(=O)CNC(=O)[C@H](CCC(=O)O)NC(=O)C(C)(C)NC(=O)[C@@H](N)Cc1c[nH]cn1)[C@@H](C)O)[C@@H](C)O)C(C)C)C(=O)N[C@@H](C)C(=O)N[C@@H](Cc1c[nH]c2ccccc12)C(=O)N[C@@H](CC(C)C)C(=O)N[C@H](C(=O)N[C@@H](CCCNC(=N)N)C(=O)NCC(=O)N[C@@H](CCCNC(=N)N)C(=O)N[C@@H](CCCCNC(=O)CN(CCCNC(=O)COCCOCCNC(=O)COCCOCCNC(=O)COCCOCCNC(=O)COCCOCCNC(=O)COCCOCCNC(=O)COCCOCCNC(=O)CC[C@H](NC(=O)[C@H]1CC[C@H](CNC(=O)CCCNC(=O)CCCCCCCCCCCCCCCS(=O)(=O)O)CC1)C(=O)O)CCCNC(=O)COCCOCCNC(=O)COCCOCCNC(=O)COCCOCCNC(=O)COCCOCCNC(=O)COCCOCCNC(=O)COCCOCCNC(=O)CC[C@H](NC(=O)[C@H]1CC[C@H](CNC(=O)CCCNC(=O)CCCCCCCCCCCCCCCS(=O)(=O)O)CC1)C(=O)O)C(=O)O)C(C)C [Example 21]	0.0015	16	0.13
